Source: patent EP0429333B1, “Process for producing oxazopyrroloquinolines, novel oxazopyrroloquinolines, and use of oxazopyrroloquinolines” (priority 1989, dated 1991)

How the values were obtained:
cataract = assay: Anti-cataract effect, intraperitoneal administration, 50 % galactose fed rats; type: in vivo, Sprague-Davley rats; conditions: 2 mg, 5 mg, 10 mg and 20 mg per 1 kg of rat intraperitoneally once a day
Description: Eightyfour male Sprague-Davley rats (supplied from Japan Charles Liver Co.) of four weeks old and having a body weight of 70 - 80 g were used and the following experiments were conducted. One group consisted of six rats.
The groups included normal group, 50 % galactose administration group, PQQ administration group, and OPQ administration group. Commercially available feeding stuff (manufactured by Japan Clea Co.) was given to the rats of normal group, and rats of 50 % galactose administration group, PQQ administration group and OPQ administration group were allowed to freely take powdery feeding stuff comprising a mixture of the above-mentioned commercially available powder feeding stuff and D-galactose for food additive in equal weight.
To the rats of PQQ and OPQ administration groups were intraperitoneally administered PQQ·2Na or OPQ in a dosage of 2 mg, 5 mg, 10 mg and 20 mg per 1 kg of rat once a day simultaneously with starting of galactose feeding and until termination of feeding.
On the 6th day and the 9th day from starting of experiment, eyeball was observed by stereoscopic microscope and judgment on cataract was made according to the following criteria. A0: No muddiness (normal) A1: Light white muddiness in the surface portion. A2: A slight heavy white muddiness in the surface portion. A3: Heavy white muddiness in the surface portion. A4: Heavy white muddiness in the surface portion and a slight white muddiness in the core portion. A5: Heavy white muddiness in the surface portion and the core portion.

[1] = biological target: T1, aldose reductase of rabbit lens (Oryctolagus cuniculus, UniProt P15122); assay: Inhibitory effect on aldose reductase of lens; type: biochemical; conditions: read-out: Degree of inhibition for aldose reductase (%)
T1 construct: to obtain electrophoretically homogeneous aldose reductase; from tissue; host or cells: rabbit lens
Method in brief: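 Electrophoretically homogeneous aldose reductase purified from rabbit lens was assayed with NADPH (0.05 ml of 3 mM stock) and DL-glyceraldehyde in 0.1 M phosphate buffer pH 6.2 at 25 °C. Activity was followed as the decrease in A340 over time. Inhibition was calculated against activity without inhibitor, with compounds tested at various concentrations.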

Acute toxicity test = conditions: mouse, in vivo, ip
Description: (§1) (1) Acute toxicity test: • (i) To male SPF-ICR mice of 5 weeks old (supplied by Charles River Co.) were intraperitoneally administered PQQ·2Na and OPQs in the dosages of 20, 40, 80, 160 and 200 mg/kg body weight of mouse, respectively and they were bred at 25°C for 14 days. OPQ, 1-methylpropyl OPQ, 2-methylthioethyl OPQ, and benzyl OPQ were used as the OPQs. One group consisted of 8 mice. […] One group consisted of 8 mice. […] They were bred at 25°C for 14 days. One group consisted of eight mice. […] (2) Toxicity to kidney (i) Toxicity to kidney determined by urine examination: In the same manner as in the acute toxicity test, PQQ·2Na and OPQs were respectively intraperitoneally administered to mice and these mice were bred. Urine was collected every day and concentration of glucose in urine was obtained using Uristex II (manufactured by Miles·Sankyo Co.). […]

male SPF-ICR mice = assay: Acute toxicity test
Description: as §1

For `O=C(O)c1cc(C(=O)O)c2c(n1)c1ncoc1c1cc(C(=O)O)[nH]c12` [OPQ, oxazopyrroloquinoline], the rats died (cataract) was “no rats died”, the inhibition at 0.1 µM ([1]; concentration 1x10^-7 M) was 43.2% and the inhibition at 0.2 µM ([1]; concentration 2x10^-7 M) was 54.5%. It also gave an inhibition at 0.5 µM ([1]; concentration 5x10^-7 M) of 63.1%, an inhibition at 0.05 µM ([1]; concentration 5x10^-8 M) of 31% and an LD50 at 336 h (Acute toxicity test) of about 1000 mg/kg. The death of mice (male SPF-ICR mice; 0.1 - 0.4 g/kg intraperitoneally, 8 mice per group, 14 days) was “All mice survived”, the death of mice (male SPF-ICR mice; 0.8 g/kg intraperitoneally, 8 mice, 14 days) was “two mice died” and the death of mice (male SPF-ICR mice; 1.2 g/kg intraperitoneally, 8 mice, 14 days) was “six mice died”. The death of mice (male SPF-ICR mice; mouse, in vivo) was “no mice died” and the death of mice (male SPF-ICR mice; orally 1.0 g, 1.5 g or 2.0 g/kg mouse, 8 mice per group, 14 days) was “No mice died”.
